Consider 33 compounds from patent US20090054392A1, “NAPHTHYLPYRIMIDINE, NAPHTHYLPYRAZINE AND NAPHTHYLPYRIDAZINE ANALOGS AND THEIR USE AS AGONISTS OF THE WNT-BETA-CATENIN CELLULAR MESSAGING SYSTEM” (Wyeth, priority 2007, published 2009).

The test system of this data set is Dkk1-LRP5-TCF-Luciferase. Description: Functional Dkk1-LRP5-TCF-Luciferase Assay in U2OS Cells. Particulars: for fold induction at 2 µM / fold induction at 20 µM / pEC50: Homo sapiens, U2OS; for fold induction at 2 µM: read-out: B = TCF ACTIVITY/DMSO CONTROL Fold induction @ 2.0 uM, 2.0 uM compound; for fold induction at 20 µM: read-out: C = TCF ACTIVITY/DMSO CONTROL Fold induction @ 20.0 uM, 20.0 uM compound; for A = MAX FOLD Induction/DMSO CONTROL: maximum fold induction over DMSO control.

pEC50: −log10 of the molar value.

In the case of `CN(c1nccc(-c2ccc3ccccc3c2)n1)C1CCN(CCOC(c2ccccc2)(c2ccccc2)c2ccccc2)CC1` [N-methyl-4-(2-naphthyl)-N-{1-[2-(trityloxy)ethyl]piperidin-4-yl}pyrimidin-2-amine], the fold induction at 2 µM was 1.14 and the fold induction at 20 µM was 1.02.

Turning to `CNc1nccc(-c2ccc3ccccc3c2)n1` [N-methyl-4-(2-naphthyl)pyrimidin-2-amine], the fold induction at 2 µM was 1.34.

Regarding `CN(CC1CCN(c2nccc(-c3ccc4ccccc4c3)n2)CC1)C1CCCCC1` [N-methyl-N-({1-[4-(2-naphthyl)pyrimidin-2-yl]piperidin-4-yl}methyl)cyclohexanamine], the fold induction at 2 µM was found to be 2.87, the fold induction at 20 µM turned out to be 0.03 and the “A = MAX FOLD Induction/DMSO CONTROL” value stood at 2.160 fold.

Regarding `CN(C[C@H]1CCN(c2nccc(-c3ccc4ccccc4c3)n2)C1)C1CCCCC1` [N-methyl-N-({(3R)-1-[4-(2-naphthyl)pyrimidin-2-yl]pyrrolidin-3-yl}methyl)cyclohexanamine], the fold induction at 2 µM turned out to be 1.27 and the fold induction at 20 µM is 1.6.

Regarding `CN(C[C@@H]1CCN(c2nccc(-c3ccc4ccccc4c3)n2)C1)C1CCCCC1` [N-methyl-N-({(3S)-1-[4-(2-naphthyl)pyrimidin-2-yl]pyrrolidin-3-yl}methyl)cyclohexanamine], the fold induction at 2 µM was 1.37, the fold induction at 20 µM was 2.27 and the “A = MAX FOLD Induction/DMSO CONTROL” value came to 3.720 fold.

On to `CN(c1nccc(-c2ccc3ccccc3c2)n1)C1CCN(S(C)(=O)=O)CC1` [N-methyl-N-[1-(methylsulfonyl)piperidin-4-yl]-4-(2-naphthyl)pyrimidin-2-amine], for which the fold induction at 2 µM was 1.24 and the fold induction at 20 µM is 0.77.

Take `CC(=O)N(C)CCN(C)[C@@H]1CCN(c2nccc(-c3ccc4ccccc4c3)n2)C1` [N-methyl-N-[2-(methyl{(3R)-1-[4-(2-naphthyl)pyrimidin-2-yl]pyrrolidin-3-yl}amino)ethyl]acetamide]: the fold induction at 20 µM turned out to be 4.4.

In the case of `CN(CCN(C)[C@@H]1CCN(c2nccc(-c3ccc4ccccc4c3)n2)C1)C(=O)c1ccccc1` [N-methyl-N-[2-(methyl{(3R)-1-[4-(2-naphthyl)pyrimidin-2-yl]pyrrolidin-3-yl}amino)ethyl]benzamide], the fold induction at 2 µM turned out to be 1.3.

In the case of `CN(CCN(C)S(=O)(=O)c1ccccc1)[C@@H]1CCN(c2nccc(-c3ccc4ccccc4c3)n2)C1` [N-methyl-N-[2-(methyl{(3R)-1-[4-(2-naphthyl)pyrimidin-2-yl]pyrrolidin-3-yl}amino)ethyl]benzenesulfonamide], the fold induction at 20 µM was 1.4.

For the compound `CCS(=O)(=O)N(C)CCN(C)[C@@H]1CCN(c2nccc(-c3ccc4ccccc4c3)n2)C1` [N-methyl-N-[2-(methyl{(3R)-1-[4-(2-naphthyl)pyrimidin-2-yl]pyrrolidin-3-yl}amino)ethyl]ethanesulfonamide], the fold induction at 20 µM was found to be 1.3.

Consider `CN(CCN(C)S(C)(=O)=O)[C@@H]1CCN(c2nccc(-c3ccc4ccccc4c3)n2)C1` [N-methyl-N-[2-(methyl{(3R)-1-[4-(2-naphthyl)pyrimidin-2-yl]pyrrolidin-3-yl}amino)ethyl]methanesulfonamide], for which the fold induction at 20 µM was found to be 1.9.

With `CCC(=O)N(C)CCN(C)[C@@H]1CCN(c2nccc(-c3ccc4ccccc4c3)n2)C1` [N-methyl-N-[2-(methyl{(3R)-1-[4-(2-naphthyl)pyrimidin-2-yl]pyrrolidin-3-yl}amino)ethyl]propanamide], the fold induction at 20 µM is 2.5.

Consider `Cc1ccc(S(=O)(=O)N2CCC(N(C)c3nccc(-c4ccc5ccccc5c4)n3)CC2)cc1` [N-methyl-N-{1-[(4-methylphenyl)sulfonyl]piperidin-4-yl}-4-(2-naphthyl)pyrimidin-2-amine], for which the fold induction at 2 µM stood at 1.65.

As a reminder, the pEC50 is the negative decadic logarithm of the EC50, by convention in mol/L. A higher pEC50 goes with a small EC50. As to `CC(=O)N(C)[C@@H]1CCN(c2nccc(-c3ccc4ccccc4c3)n2)C1` [N-methyl-N-{(3R)-1-[4-(2-naphthyl)pyrimidin-2-yl]pyrrolidin-3-yl}acetamide], the pEC50 was 5.00, the fold induction at 2 µM worked out at 1.55, the fold induction at 20 µM turned out to be 2.71 and the “A = MAX FOLD Induction/DMSO CONTROL” value was found to be 2.285 fold.

In the case of `CC(=O)N(C)[C@H]1CCN(c2nccc(-c3ccc4ccccc4c3)n2)C1` [N-methyl-N-{(3S)-1-[4-(2-naphthyl)pyrimidin-2-yl]pyrrolidin-3-yl}acetamide], the negative logarithm of the EC50 (pEC50) is 5.67, the fold induction at 2 µM was found to be 2.38, the fold induction at 20 µM is 2.89 and the “A = MAX FOLD Induction/DMSO CONTROL” value was 2.533 fold.

As for `CC(C)(C)NC(=O)[C@H]1CCCN1c1nccc(-c2ccc3ccccc3c2)n1` [N-tert-butyl-1-[4-(2-naphthyl)pyrimidin-2-yl]-D-prolinamide], the fold induction at 2 µM turned out to be 1.16 and the fold induction at 20 µM worked out at 0.6.

As for `CC(C)(C)NC(=O)[C@@H]1CCCN1c1nccc(-c2ccc3ccccc3c2)n1` [N-tert-butyl-1-[4-(2-naphthyl)pyrimidin-2-yl]-L-prolinamide], the fold induction at 2 µM worked out at 1.94.

Consider `CC(=O)NC1CCCN(c2nccc(-c3ccc4ccccc4c3)n2)CC1` (centres unmarked) [N-{1-[4-(2-naphthyl)pyrimidin-2-yl]azepan-4-yl}acetamide], for which the fold induction at 2 µM was found to be 1.26, the fold induction at 20 µM was found to be 2.91 and the “A = MAX FOLD Induction/DMSO CONTROL” value is given as 1.350 fold.

With `O=C(NC1CCCN(c2nccc(-c3ccc4ccccc4c3)n2)CC1)c1ccccc1` (centres unmarked) [N-{1-[4-(2-naphthyl)pyrimidin-2-yl]azepan-4-yl}benzamide], the fold induction at 2 µM came to 1.23 and the fold induction at 20 µM amounted to 1.07.

Regarding `CS(=O)(=O)NC1CCCN(c2nccc(-c3ccc4ccccc4c3)n2)CC1` (centres unmarked) [N-{1-[4-(2-naphthyl)pyrimidin-2-yl]azepan-4-yl}methanesulfonamide], the fold induction at 2 µM amounted to 2.04, the fold induction at 20 µM came to 2.21 and the “A = MAX FOLD Induction/DMSO CONTROL” value was 1.120 fold.

`NC(=O)NC1CCCN(c2nccc(-c3ccc4ccccc4c3)n2)CC1` (centres unmarked) [N-{1-[4-(2-naphthyl)pyrimidin-2-yl]azepan-4-yl}urea]: the pEC50 is 4.69, the fold induction at 2 µM was 1.62, the fold induction at 20 µM worked out at 2.89 and the “A = MAX FOLD Induction/DMSO CONTROL” value came out at 1.500 fold.

As for `CC(=O)N[C@@H]1CCN(c2nccc(-c3ccc4ccccc4c3)n2)C1` [N-{(3R)-1-[4-(2-naphthyl)pyrimidin-2-yl]pyrrolidin-3-yl}acetamide], the fold induction at 2 µM was found to be 1.62, the fold induction at 20 µM turned out to be 0.2 and the “A = MAX FOLD Induction/DMSO CONTROL” value was determined as 1.610 fold.

As for `N=C(N)N[C@@H]1CCN(c2nccc(-c3ccc4ccccc4c3)n2)C1` [N-{(3R)-1-[4-(2-naphthyl)pyrimidin-2-yl]pyrrolidin-3-yl}guanidine], the fold induction at 2 µM came out at 1.63 and the fold induction at 20 µM stood at 0.65.

`CS(=O)(=O)N[C@@H]1CCN(c2nccc(-c3ccc4ccccc4c3)n2)C1` [N-{(3R)-1-[4-(2-naphthyl)pyrimidin-2-yl]pyrrolidin-3-yl}methanesulfonamide]: the fold induction at 2 µM is 1.26 and the fold induction at 20 µM turned out to be 0.82.

As to `O=C(N[C@@H]1CCN(c2nccc(-c3ccc4ccccc4c3)n2)C1)N1CCOCC1` [N-{(3R)-1-[4-(2-naphthyl)pyrimidin-2-yl]pyrrolidin-3-yl}morpholine-4-carboxamide], the fold induction at 2 µM stood at 1.91.

As to `O=C(N[C@@H]1CCN(c2nccc(-c3ccc4ccccc4c3)n2)C1)N1CCCC1` [N-{(3R)-1-[4-(2-naphthyl)pyrimidin-2-yl]pyrrolidin-3-yl}pyrrolidine-1-carboxamide], the fold induction at 2 µM is 1.41 and the fold induction at 20 µM amounted to 0.27.

Consider `NC(=O)N[C@@H]1CCN(c2nccc(-c3ccc4ccccc4c3)n2)C1` [N-{(3R)-1-[4-(2-naphthyl)pyrimidin-2-yl]pyrrolidin-3-yl}urea], for which the pEC50 is 5.37, the fold induction at 2 µM worked out at 2.09, the fold induction at 20 µM stood at 1.63 and the “A = MAX FOLD Induction/DMSO CONTROL” value is on record as 1.550 fold.

Regarding `Cc1ccc(S(=O)(=O)N2CC[C@@H](Nc3nccc(-c4ccc5ccccc5c4)n3)C2)cc1` [N-{(3R)-1-[(4-methylphenyl)sulfonyl]pyrrolidin-3-yl}-4-(2-naphthyl)pyrimidin-2-amine], the fold induction at 20 µM was determined as 1.58.

As to `CC(=O)N(CC(F)(F)F)[C@H]1CCN(c2nccc(-c3ccc4ccccc4c3)n2)C1` [N-{(3S)-1-[4-(2-naphthyl)pyrimidin-2-yl]pyrrolidin-3-yl}-N-(2,2,2-trifluoroethyl)acetamide], the fold induction at 2 µM was 1.23.

As to `CC(=O)N[C@H]1CCN(c2nccc(-c3ccc4ccccc4c3)n2)C1` [N-{(3S)-1-[4-(2-naphthyl)pyrimidin-2-yl]pyrrolidin-3-yl}acetamide], the pEC50 is 5.16, the fold induction at 2 µM worked out at 1.02, the fold induction at 20 µM stood at 1.5 and the “A = MAX FOLD Induction/DMSO CONTROL” value came to 4.375 fold.

Consider `O=C(N[C@H]1CCN(c2nccc(-c3ccc4ccccc4c3)n2)C1)c1ccccc1` [N-{(3S)-1-[4-(2-naphthyl)pyrimidin-2-yl]pyrrolidin-3-yl}benzamide], for which the fold induction at 2 µM was found to be 1.13 and the fold induction at 20 µM is 0.64.

As for `CS(=O)(=O)N[C@H]1CCN(c2nccc(-c3ccc4ccccc4c3)n2)C1` [N-{(3S)-1-[4-(2-naphthyl)pyrimidin-2-yl]pyrrolidin-3-yl}methanesulfonamide], the pEC50 was 4.86, the fold induction at 2 µM amounted to 0.68, the fold induction at 20 µM was 1.56 and the “A = MAX FOLD Induction/DMSO CONTROL” value is recorded as 1.420 fold.

Take `O=C(N[C@H]1CCN(c2nccc(-c3ccc4ccccc4c3)n2)C1)N1CCOCC1` [N-{(3S)-1-[4-(2-naphthyl)pyrimidin-2-yl]pyrrolidin-3-yl}morpholine-4-carboxamide]: the fold induction at 2 µM worked out at 0.93 and the fold induction at 20 µM came out at 1.72.
